The subject of the test is Pfeiffer cell line (diffuse large B cell lymphoma). The experiment in a line: Example B2: Pfeiffer cell proliferation assay. The format is cell-based. The note with it: Pfeiffer cells, [3H]-thymidine incorporation. Here is the method: Pfeiffer cell line (diffuse large B cell lymphoma) are purchased from ATCC (Manassas, Va.) and maintained in the culture medium recommended (RPMI and 10% FBS). To measure the anti-proliferation activity of the compounds, the Pfeiffer cells are plated with the culture medium (2×10^3 cells/well/per 200 μl) into 96-well ultra-low binding plates (Corning, Corning, N.Y.), in the presence or absence of a concentration range of test compounds. After 3-4 days, [^3H]-thymidine (1 μCi/well) (PerkinElmer, Boston, Mass.) in PBS is then added to the cell culture for an additional 12 hours before the incorporated radioactivity is separated by filtration with water through GF/B filters (Packard Bioscience, Meridenj, Conn.) and measured by liquid scintillation counting with a TopCount (Packard Bioscience).
For orientation: Uptake of a labelled nucleoside into DNA is a usual measure of proliferation.

Data on 27 compounds can be found in patent US10092570B2 (Incyte Corporation, priority 2011, dated 2018).

Structures can show the parent of a compound that is named as a salt. Bounds are passed on as bounds.

In the case of `COc1c(C(C)n2nc(C)c3c(N)ncnc32)cc(Cl)c(Cl)c1C1CN(CC(C)(C)O)C1` (single isomer, unassigned) [Example 303, 1-(3-{3-[1-(4-Amino-3-methyl-1H-pyrazolo[3,4-d]pyrimidin-1-yl)ethyl]-5,6-dichloro-2-methoxyphenyl}azetidin-1-yl)-2-methylpropan-2-ol], for the setting “Homo sapiens, Pfeiffer”, the IC50 (usually the concentration at which inhibition is half-maximal) is below 10 nM.

Consider `CCOc1c(C(C)n2nc(C)c3c(N)ncnc32)cc(Cl)c(C#N)c1C1CN(C(C)C)C1` (single isomer, unassigned) [Example 215, 4-[1-(4-Amino-3-methyl-1H-pyrazolo[3,4-d]pyrimidin-1-yl)ethyl]-6-chloro-3-ethoxy-2-(1-isopropylazetidin-3-yl)benzonitrile], for which, for the setting “Homo sapiens, Pfeiffer”, the IC50 was below 10 nM.

`CCOc1c(C(C)n2nc(C)c3c(N)ncnc32)cc(Cl)c(F)c1C1CN(C[C@H](C)O)C1` (stereo partly drawn) [Example 149, (2S)-1-(3-{3-[1-(4-Amino-3-methyl-1H-pyrazolo[3,4-d]pyrimidin-1-yl)ethyl]-5-chloro-2-ethoxy-6-fluorophenyl}azetidin-1-yl)propan-2-ol] showed an IC50 (Homo sapiens, Pfeiffer) below 10 nM.

Compound `CCOc1c(C(C)n2nc(C)c3c(N)ncnc32)cc(Cl)c(F)c1C1CNC(=O)C1` (single isomer, unassigned) [Example 346, 4-{3-[1-(4-amino-3-methyl-1H-pyrazolo[3,4-d]pyrimidin-1-yl)ethyl]-5-chloro-2-ethoxy-6-fluorophenyl}pyrrolidin-2-one] yielded an IC50 (Homo sapiens, Pfeiffer) below 10 nM.

For the compound `CCOc1c(C(C)n2nc(C)c3c(N)ncnc32)cc(Cl)c(C)c1-c1cncc(S(C)(=O)=O)c1` (single isomer, unassigned) [Example 198], under “Homo sapiens, Pfeiffer”, the IC50 was below 10 nM.

In turn, `CCOc1c(C(C)n2nc(C)c3c(N)ncnc32)cc(Cl)c(F)c1C1COC(=O)N1` (single isomer, unassigned) [Example 354, 4-{3-[1-(4-amino-3-methyl-1H-pyrazolo[3,4-d]pyrimidin-1-yl)ethyl]-5-chloro-2-ethoxy-6-fluorophenyl}-1,3-oxazolidin-2-one] returned an IC50 (Homo sapiens, Pfeiffer) below 10 nM.

Where the note is “Homo sapiens, Pfeiffer”, `COc1c(C(C)n2nc(C)c3c(N)ncnc32)cc(Cl)c(C#N)c1C1CN(C(C)C)C1` (single isomer, unassigned) [Example 264, 4-[1-(4-Amino-3-methyl-1H-pyrazolo[3,4-d]pyrimidin-1-yl)ethyl]-6-chloro-2-(1-isopropylazetidin-3-yl)-3-methoxybenzonitrile] came in with an IC50 below 10 nM.

Take `CCOc1c(C(C)n2nc(C)c3c(N)ncnc32)cc(Cl)c(C#N)c1C1CN(CC)C1` (single isomer, unassigned) [Example 214, 4-[1-(4-Amino-3-methyl-1H-pyrazolo[3,4-d]pyrimidin-1-yl)ethyl]-6-chloro-3-ethoxy-2-(1-ethylazetidin-3-yl)benzonitrile]: where the note is “Homo sapiens, Pfeiffer”, the IC50 is below 10 nM.

Regarding `CCOc1c(C(C)n2nc(C)c3c(N)ncnc32)cc(Cl)c(C#N)c1C1CN(C(=O)NC)C1` (single isomer, unassigned) [Example 257, 3-{3-[1-(4-Amino-3-methyl-1H-pyrazolo[3,4-d]pyrimidin-1-yl)ethyl]-5-chloro-6-cyano-2-ethoxyphenyl}-N-methylazetidine-1-carboxamide], under “Homo sapiens, Pfeiffer”, the IC50 was below 10 nM.

For the setting “Homo sapiens, Pfeiffer”, `CCOc1c(C(C)n2nc(C)c3c(N)ncnc32)cc(Cl)c(F)c1C1CN(CC(N)=O)C1` (racemic) [Example 148, 2-(3-{3-[1-(4-Amino-3-methyl-1H-pyrazolo[3,4-d]pyrimidin-1-yl)ethyl]-5-chloro-2-ethoxy-6-fluorophenyl}azetidin-1-yl)acetamide] registered a half-maximal inhibitory concentration (IC50) below 10 nM.

For the compound `COc1c(C(C)n2nc(C)c3c(N)ncnc32)cc(Cl)c(F)c1C1CN(C[C@H](C)O)C1` (single isomer, unassigned) [68 (1st peak)], the IC50 (Homo sapiens, Pfeiffer) was below 10 nM.

`COc1c(C(C)n2nc(C)c3c(N)ncnc32)cc(Cl)c(C)c1-c1cncc(C(=O)N2CC(C#N)C2)c1` (single isomer, unassigned) [Example 177, 1-[(5-{3-[1-(4-amino-3-methyl-1H-pyrazolo[3,4-d]pyrimidin-1-yl)ethyl]-5-chloro-2-methoxy-6-methylphenyl}pyridin-3-yl)carbonyl]azetidine-3-carbonitrile] yielded an IC50 (Homo sapiens, Pfeiffer) below 10 nM.

Take `CCOc1c(C(C)n2nc(C)c3c(N)ncnc32)cc(Cl)c(C)c1-c1ccc(C(=O)N(C)C)nc1` (stereo not drawn) [Example 195, 5-(3-(1-(4-Amino-3-methyl-1H-pyrazolo[3,4-d]pyrimidin-1-yl)ethyl)-5-chloro-2-ethoxy-6-methylphenyl)-N,N-dimethylpicolinamide bis(2,2,2-trifluoroacetate)]: the IC50 (Homo sapiens, Pfeiffer) was below 10 nM.

In the case of `COc1c(C(C)n2nc(C)c3c(N)ncnc32)cc(Cl)c(C#N)c1-c1ccc(C(=O)N(C)C)nc1` (stereo not drawn) [Example 313, 5-{3-[1-(4-amino-3-methyl-1H-pyrazolo[3,4-d]pyrimidin-1-yl)ethyl]-5-chloro-6-cyano-2-methoxyphenyl}-N,N-dimethylpyridine-2-carboxamide], the concentration for half-maximal inhibition (IC50) (Homo sapiens, Pfeiffer) is below 10 nM.

`COc1c(C(C)n2nc(C)c3c(N)ncnc32)cc(Cl)c(C)c1C1CN(CC(N)=O)C1` (single isomer, unassigned) [Example 111, 2-(3-{3-[1-(4-Amino-3-methyl-1H-pyrazolo[3,4-d]pyrimidin-1-yl)ethyl]-5-chloro-2-methoxy-6-methylphenyl}azetidin-1-yl)acetamide] showed an IC50 (Homo sapiens, Pfeiffer) below 10 nM.

`COc1c(C(C)n2nc(C)c3c(N)ncnc32)cc(Cl)c(Cl)c1C1CN(CCO)C1` (single isomer, unassigned) [Example 300, 2-(3-{3-[1-(4-Amino-3-methyl-1H-pyrazolo[3,4-d]pyrimidin-1-yl)ethyl]-5,6-dichloro-2-methoxyphenyl}azetidin-1-yl)ethano] displayed an IC50 (Homo sapiens, Pfeiffer) below 10 nM.

`CCOc1c(C(C)n2nc(C)c3c(N)ncnc32)cc(C)c(C#N)c1-c1ccc(C(=O)N(C)C)nc1` (stereo not drawn) [Example 314, 5-{3-[1-(4-amino-3-methyl-1H-pyrazolo[3,4-d]pyrimidin-1-yl)ethyl]-6-cyano-2-ethoxy-5-methylphenyl}-N,N-dimethylpyridine-2-carboxamide]: the IC50 (Homo sapiens, Pfeiffer) is below 10 nM.

On to `COc1c(C(C)n2nc(C)c3c(N)ncnc32)cc(Cl)c(C)c1-c1ccnc(C(=O)N(C)C)c1` (stereo not drawn) [Example 200, 4-(3-(1-(4-Amino-3-methyl-1H-pyrazolo[3,4-d]pyrimidin-1-yl)ethyl)-5-chloro-2-methoxy-6-methylphenyl)-N,N-dimethylpicolinamide bis(2,2,2-trifluoroacetate)], for which the IC50 (Homo sapiens, Pfeiffer) was below 10 nM.

With `COc1c(C(C)n2nc(C)c3c(N)ncnc32)cc(Cl)c(F)c1C1CN(C(C)C)C1` (stereo not drawn) [67 (1st peak), 1-{1-[5-Chloro-4-fluoro-3-(1-isopropylazetidin-3-yl)-2-methoxyphenyl]ethyl}-3-methyl-1H-pyrazolo[3,4-d]pyrimidin-4-amine], under “Homo sapiens, Pfeiffer”, the IC50 was below 10 nM.

Compound `COc1c(C(C)n2nc(C(F)F)c3c(N)ncnc32)cc(Cl)c(F)c1C1CN(C)C1` (racemic) [Example 75, 1-{1-[5-Chloro-4-fluoro-2-methoxy-3-(1-methylazetidin-3-yl)phenyl]ethyl}-3-(difluoromethyl)-1H-pyrazolo[3,4-d]pyrimidin-4-amine] came in with an IC50 (Homo sapiens, Pfeiffer) below 10 nM.

Take `COc1c(C(C)n2nc(C)c3c(N)ncnc32)cc(Cl)c(C)c1C1CN(C(=O)[C@@H](C)O)C1` (single isomer, unassigned) [Example 121, trifluoroacetate]: the IC50 (Homo sapiens, Pfeiffer) fell in the range of 10 to 50 nM.

The compound `CCOc1c(C(C)n2nc(C)c3c(N)ncnc32)cc(Cl)c(C#N)c1C1CN(CCO)C1` (stereo not drawn) [Example 219, 4-[1-(4-Amino-3-methyl-1H-pyrazolo[3,4-d]pyrimidin-1-yl)ethyl]-6-chloro-3-ethoxy-2-[1-(2-hydroxyethyl)azetidin-3-yl]benzonitrile] displayed an IC50 (Homo sapiens, Pfeiffer) below 10 nM.

Consider `CCOc1c(C(C)n2nc(C)c3c(N)ncnc32)cc(Cl)c(C#N)c1C1CNC(=O)C1` (single isomer, unassigned) [Example 349, 4-[1-(4-amino-3-methyl-1H-pyrazolo[3,4-d]pyrimidin-1-yl)ethyl]-6-chloro-3-ethoxy-2-(5-oxopyrrolidin-3-yl)benzonitrile], for which the IC50 (Homo sapiens, Pfeiffer) was below 10 nM.

On to `COc1c(C(C)n2nc(C)c3c(N)ncnc32)cc(Cl)c(C)c1-c1ccc(C(=O)N(C)C)nc1` (stereo not drawn) [Example 167, 5-(3-(1-(4-Amino-3-methyl-1H-pyrazolo[3,4-d]pyrimidin-1-yl)ethyl)-5-chloro-2-methoxy-6-methylphenyl)-N,N-dimethylpicolinamide bis(2,2,2-trifluoroacetate)], for which the IC50 (Homo sapiens, Pfeiffer) was below 10 nM.

Turning to `CCOc1c(C(C)n2nc(C(F)F)c3c(N)ncnc32)cc(Cl)c(F)c1C1CN(CCO)C1` (racemic) [Example 152, 2-[3-(3-{1-[4-Amino-3-(difluoromethyl)-1H-pyrazolo[3,4-d]pyrimidin-1-yl]ethyl}-5-chloro-2-ethoxy-6-fluorophenyl)azetidin-1-yl]ethanol], the IC50 (Homo sapiens, Pfeiffer) is below 10 nM.

As for `CCOc1c(C(C)n2nc(C)c3c(N)ncnc32)cc(Cl)c(F)c1C1CNC(=O)C1` (single isomer, unassigned) [Example 347, 4-{3-[1-(4-amino-3-methyl-1H-pyrazolo[3,4-d]pyrimidin-1-yl)ethyl]-5-chloro-2-ethoxy-6-fluorophenyl}pyrrolidin-2-one], the IC50 was below 10 nM.

In turn, `COc1c(C(C)n2nc(C(F)F)c3c(N)ncnc32)cc(Cl)c(C)c1-c1ccc(C(=O)N(C)C)nc1` (stereo not drawn) [Example 191, 5-(3-{1-[4-Amino-3-(difluoromethyl)-1H-pyrazolo[3,4-d]pyrimidin-1-yl]ethyl}-5-chloro-2-methoxy-6-methylphenyl)-N,N-dimethylpyridine-2-carboxamide] came in with a 50% inhibitory concentration (IC50) (Homo sapiens, Pfeiffer) below 10 nM.
